Assay results published in patent US5206252A, “Thiadiazolyl-amino derivatives of benzopyrans and indanes” (American Home Products Corporation, priority 1992, dated 1993).

System: Isolated Rat Bladder Strips
Assay: Inhibition of Contractions in Isolated Rat Bladder Strips (smooth muscle relaxing activity, 15 mM KCl-enhanced contractile activity)
Parameters: species or system Sprague-Dawley rats
Details: for inhibition at 30 µM: Rattus norvegicus, maximum percentage inhibition of contractile activity, read-out: Inhibition of Force (%) at (X) μM
From the text: The smooth muscle relaxing activity of the compounds of this invention was established in accordance with standard pharmaceutically accepted test procedures in representative compounds as follows:
Sprague-Dawley rats (150-200 g) are rendered unconscious by CO2 asphyxiation and then euthanized by cervical dislocation. The bladder is removed into warm (37 deg.C.) physiological salt solution (PSS) of the following composition (mM): NaCl, 118.4; KCl, 4.7; CaCl2, 2.5; […]; NaHCO3, 24.9; KH2 PO4, 1.2; glucose, 11.1; EDTA, 0.023; gassed with […]; pH 7.4. The bladder is opened and then cut into strips 1-2 mm in width and 7-10 mm in length. The strips are subsequently suspended in a 10 ml tissue bath under an initial resting tension of 1.5 g. The strips are held in place by two surgical clips one of which is attached to fixed hook while the other is attached to an isometric force transducer. […] The carbachol is then washed out and the tissue allowed to relax to its resting level of activity. Following an additional 30 minute period of recovery an additional 15 mM KCl are introduced into the tissue bath. This increase in KCl concentration results in a large increase in the amplitude of spontaneous contractions (and initiation of contractions in previously quiescent strips) superimposed upon a small increase in basal tone. Following stabilization of this enhanced level of contractile activity, incremental increases in the concentration of test compound or vehicle are introduced into the tissue bath. Contractile activity is measured for each compound or vehicle concentration during the last min of a 30 min challenge.
Isometric force developed by the bladder strips is measured using a […] to elicit 50% inhibition of pre-drug contractile activity (IC50 concentration) is calculated from this concentration-response curve. The maximum percentage inhibition of contractile activity evoked by a test compound is also recorded for concentrations of test compound<or equal to 30 uM.

| Structure (SMILES) | inhibition at 30 µM [%] | IC50 (0.5 h, isolated rat bladder strips, 15 mM KCl, last min of a 30 min challenge, read-out: IC50 (concentration required to elicit 50% inhibition of pre-drug contractile activity)) [µM] |
| --- | --- | --- |
| CC1(C)Oc2ccc(OC(F)(F)F)cc2[C@@H](NC2=NS(=O)(=O)N=C2N)[C@@H]1O [Example 2, (-)-(3S,4R)-4-(4-Amino-1,1-dioxo-[1,2,5]thiadiazol-3-ylamino)2,2-dimethyl-6-trifluoromethoxy-chroman-3-ol] | 33 |  |
| CNC1=NS(=O)(=O)N=C1N[C@@H]1c2cc(OC(F)(F)F)ccc2OC(C)(C)[C@H]1O [Example 3, (-)-(3S,4R)-2,2-Dimethyl-4-(4-methylamino-1,1-dioxo-[1,2,5]-thiadiazol-3-ylamino)-6-trifluoromethoxy-chroman-3-ol] | 95 | 4.8 |
